Laboratory results: EPA's CvTdb concentration-time database

Legend:
Assay in all cases: concentration in plasma after dosing
Rat [1] = settings: dosed: Glyoxylic acid monohydrate, 50 mg/kg, iv, Male, Harlan Sprague Dawley
Rat [2] = settings: dosed: Glyoxylic acid monohydrate, 50 mg/kg, iv, Female, Harlan Sprague Dawley
Rat [3] = settings: 11 min; dosed: Glyoxylic acid monohydrate; 50 mg/kg; iv; Female; Harlan Sprague Dawley
Rat [4] = settings: 11 min; dosed: Glyoxylic acid monohydrate; 50 mg/kg; iv; Female; Harlan Sprague Dawley; remark: listed apart in the source
Rat [5] = settings: dosed: Glyoxylic acid monohydrate, 50 mg/kg, iv, Female, Harlan Sprague Dawley; remark: listed apart in the source
Rat [6] = settings: dosed: Glyoxylic acid monohydrate, 50 mg/kg, iv, Female, Harlan Sprague Dawley; remark: listed apart in the source
Rat [7] = settings: dosed: Glyoxylic acid monohydrate, 50 mg/kg, iv, Female, Harlan Sprague Dawley; remark: listed apart in the source
Rat [8] = settings: dosed: Glyoxylic acid monohydrate, 50 mg/kg, iv, Female, Harlan Sprague Dawley; remark: listed apart in the source
Rat [9] = settings: 14 min; dosed: Glyoxylic acid monohydrate; 50 mg/kg; iv; Male; Harlan Sprague Dawley
Rat [10] = settings: dosed: Glyoxylic acid monohydrate, 50 mg/kg, iv, Female, Harlan Sprague Dawley; remark: listed apart in the source
Rat [11] = settings: dosed: Glyoxylic acid monohydrate, 50 mg/kg, iv, Female, Harlan Sprague Dawley; remark: listed apart in the source
Rat [12] = settings: dosed: Glyoxylic acid monohydrate, 50 mg/kg, iv, Female, Harlan Sprague Dawley; remark: listed apart in the source
Rat [13] = settings: dosed: Glyoxylic acid monohydrate, 50 mg/kg, iv, Harlan Sprague Dawley
Rat [14] = settings: dosed: Glyoxylic acid monohydrate, 50 mg/kg, iv, Female, Harlan Sprague Dawley; remark: listed apart in the source
Rat [15] = settings: dosed: Glyoxylic acid monohydrate, 50 mg/kg, iv, Female, Harlan Sprague Dawley; remark: listed apart in the source
Rat [16] = settings: dosed: Glyoxylic acid monohydrate, 50 mg/kg, iv, Male, Harlan Sprague Dawley; remark: listed apart in the source
Rat [17] = settings: 14 min; dosed: Glyoxylic acid monohydrate; 50 mg/kg; iv; Female; Harlan Sprague Dawley
Rat [18] = settings: dosed: Glyoxylic acid monohydrate, 50 mg/kg, iv, Male, Harlan Sprague Dawley; remark: listed apart in the source
Rat [19] = settings: dosed: Glyoxylic acid monohydrate, 50 mg/kg, iv, Female, Harlan Sprague Dawley; remark: listed apart in the source
Rat [20] = settings: dosed: Glyoxylic acid monohydrate, 50 mg/kg, iv, Female, Harlan Sprague Dawley; remark: listed apart in the source

O.O=CC(=O)O [Glyoxylic acid monohydrate]
Settings | concentration in plasma [ng/mL]
Rat [1], 0.3 h | 6320
Rat [1], 5 min | 34200
Rat [2], 8 min | 17400
Rat [2], 22 min | 4560
Rat [5], 5 min | 28600
Rat [5], 22 min | 3840
Rat [6], 0.5 h | 3380
Rat [6], 11 min | 12000
Rat [7], 0.5 h | 2690
Rat [7], 11 min | 10700
Rat [8], 0.5 h | 2820
Rat [8], 8 min | 16900
Rat [10], 0.5 h | 2850
Rat [10], 8 min | 15800
Rat [11], 0.5 h | 3360
Rat [11], 8 min | 14700
Rat [12], 2 min | 99000
Rat [12], 14 min | 6240
Rat [14], 0.3 h | 3380
Rat [14], 2 min | 70100
Rat [15], 0.3 h | 5270
Rat [15], 5 min | 26200
Rat [16], 0.3 h | 5910
Rat [16], 2 min | 92900
Rat [18], 2 min | 66100
Rat [18], 14 min | 5250
Rat [19], 8 min | 15800
Rat [19], 22 min | 3900
Rat [20], 5 min | 27700
Rat [20], 22 min | 3860

Settings | concentration in plasma [ng/mL]
Rat [3] | 11600
Rat [4] | 9560
Rat [9] | 7680
Rat [17] | 8370

concentration in plasma [ng/mL], Rat [13]
Settings | 0.3 h | 2 min | 5 min | 8 min | 11 min | 14 min | 22 min
Female | 4380 | 102000 | 24000 | 10100 | 11300 | 8040 | 3600
Male | 4850 | 63200 | 29800 | – | 9000 | 8390 | 4090
